# Laboratory results: patent US20140051756A1, “METHOD FOR PREVENTING OR TREATING ARRHYTHMIA, METHOD FOR PREVENTING OR TREATING ATRIAL FIBRILLATION, MODEL OF SUSTAINED ATRIAL FIBRILLATION, METHOD FOR PRODUCING THE MODEL, AND METHOD FOR SCREENING FOR ATRIAL FIBRILLATION INHIBITOR” (Toho University, priority 2011, published 2014)
# Like-named read-outs stand apart in the source and are kept apart here.
# Assays:
# [1] = tested on: model of sustained atrial fibrillation; test: Test Example 1: screening for atrial fibrillation inhibitor, intravenous injection, Holter electrocardiogram; conditions: for Frequency of Atrial Fibrillation Termination: X/Y individuals terminated
# normal beagle dogs [2] = conditions: dog, in vivo, iv
# [3] = tested on: model of sustained atrial fibrillation; test: Test Example 2: study of dose and combined use of oseltamivir, with 24 hour follow-up for recurrence; assay type: in vivo, beagle dog; conditions: for Frequency of Atrial Fibrillation Recurrence: 24 hours follow-up after termination
# Text: Oseltamivir (oseltamivir phosphate, trade name: TAMIFLU (registered trademark), product of CHUGAI PHARMACEUTICAL CO., LTD.; phosphate of the compound represented by Structural Formula (I))) and/or pilsicainide (pilsicainide hydrochloride, trade name: […] (registered trademark), product of DAIICHI SANKYO COMPANY, LIMITED), which had been diluted with saline to doses as described in Table 2-1, was intravenously injected to the model of sustained atrial fibrillation produced in Production Example 1 in doses described in Table 2-1 for 10 min.
# During from before the administration to after the administration, the electrocardiogram was monitored in the same manner as in Test Example 1, and the frequency of atrial fibrillation termination and the defibrillation rate were determined in the same manner as in Test Example 1. For individuals in which atrial fibrillation was terminated, an electrocardiographic follow-up was performed for 24 hours after atrial fibrillation was terminated to thereby determine whether atrial fibrillation recurred.
# normal beagle dogs [4] = test: Test Example 3: study of effect on QT prolongation (ECG, MAP90, ERP)
# [5] = 3 mg/kg intravenous over 10 min
# [6] = high dose 30 mg/kg intravenous over 10 min
# [7] = low dose 3 mg/kg intravenous over 10 min
# [8] = 30 mg/kg intravenous over 10 min
smiles,measurement,setting,value
"CCN(CC)CCCN(c1ccccc1)C1Cc2ccccc2C1 [Aprindine, aprindine]",Defibrillation Rate,[1]; [5],0%
same,Frequency of Atrial Fibrillation Termination,[1]; [5],0/6
"c1ccc(C2(c3ccccc3)CC2C2=NCCN2)cc1 (centres unmarked) [Cibenzoline, cibenzoline]",Defibrillation Rate,[1]; [5],33.3%
same,Frequency of Atrial Fibrillation Termination,[1]; [5],2/6
"CC(C)N(CCC(C(N)=O)(c1ccccc1)c1ccccn1)C(C)C (centres unmarked) [Disopyramide, disopyramide]","MAP90 (CL300) versus MAP90 (CL400), MAP prolongation pattern",normal beagle dogs [2],dangerous MAP prolongation pattern
same,"prolongation of QT and QTc, QT prolongation pattern",normal beagle dogs [2],"longer prolongations of QT and QTc than that of the oseltamivir-administered group, and a dangerous QT prolongation pattern"
same,Frequency of Atrial Fibrillation Termination,[1]; [5],1/6
same,death of the model animal after administration,"[1]; 3 mg/kg intravenous, 1 individual, FIG. 6A",confirmed to be dead
same,termination of atrial fibrillation on electrocardiogram,"[1]; 3 mg/kg intravenous, 1 individual, FIGS. 6A to 6C",could not terminate atrial fibrillation
"CCOC(=O)C1=C[C@@H](OC(CC)CC)[C@H](NC(C)=O)[C@@H](N)C1 [Oseltamivir, oseltamivir]",Defibrillation Rate,[3]; [6],100%
same,Frequency of Atrial Fibrillation Termination,[3]; [6],5/5
same,Frequency of Atrial Fibrillation Recurrence,[3]; [6],2/5
same,Defibrillation Rate,[3]; [7],25%
same,Frequency of Atrial Fibrillation Termination,[3]; [7],1/4
same,Frequency of Atrial Fibrillation Recurrence,[3]; [7],0/1
same,"prolongation of QT and QTc, QT prolongation pattern","normal beagle dogs [4]; anesthetized normal dogs, intravenous doses increased stepwise every 30 min (Table 3), FIGS. 7 to 10",short prolongations of QT and QTc and a safe QT prolongation pattern
same,prolongation of P wave width on the electrocardiogram (index of inhibitory effect on Na channels in the atrial muscle),"normal beagle dogs [4]; sinus rhythm, 0.3, 3, 30 mg/kg intravenous stepwise, FIG. 7",longer prolongation of P wave
same,"MAP90 (CL300) versus MAP90 (CL400), MAP prolongation pattern","normal beagle dogs [4]; ventricular pacing at cycle length 300 msec (200 bpm) and 400 msec (150 bpm), stepwise intravenous doses (Table 3)",safe MAP prolongation pattern
same,Defibrillation Rate,[1]; [8],91.7%
same,adverse effect on the ventricle,[1]; [8],does not adversely affect the ventricle
same,Frequency of Atrial Fibrillation Termination,[1]; [8],11/12
same,Defibrillation Rate,"[1]; 30 mg/kg intravenous over 10 min, listed as oseltamivir",very high
"Cc1cccc(C)c1NC(=O)CC12CCCN1CCC2 [Pilsicainide, pilsicainide]","MAP90 (CL300) versus MAP90 (CL400), MAP prolongation pattern",normal beagle dogs [2],dangerous MAP prolongation pattern
same,"prolongation of QT and QTc, QT prolongation pattern",normal beagle dogs [2],"longer prolongations of QT and QTc than that of the oseltamivir-administered group, and a dangerous QT prolongation pattern"
same,Defibrillation Rate,[1]; [5],33.3%
same,Frequency of Atrial Fibrillation Termination,[1]; [5],2/6
